Measured values reported in patent publication US11492644B2, “Genetically induced nephron progenitors” (MURDOCH CHILDRENS RESEARCH INSTITUTE, priority 2017, dated 2022).

Tested on: Cited1
Experiment: In situ reprogramming by renal pelvis hydrodynamic injection
Assay type: in vivo, mouse
Conditions: Cited1-CreERT2 BAC transgenic mice, 72 h post-injection
Description: Renal pelvis hydrodynamic injection was performed as previously described (Woodard et al Sci Rep 2017, Woodard et al J. Vis. Exp. 2017) on 15 week-old Cited1-CreER^T2 BAC transgenic mice (Boyle et al Dev. Biol. 2008). Mice were assayed for presence of the GFP transgene at weaning (Transnetyx, Cordova, Tenn.). A solution of 50 ug of pT-mSES in 100 uL of buffer QR (Minis Bio, Madison, Wis.) was injected quickly into the renal pelvis of mice anesthetized with ketamine/xylazine. Mice were treated every 8-12 h with buprenorphine for pain management for 48 h and sacrificed at 72 h post-injection.
There were eGFP-positive cells with a similar morphology present in both QR-injected and pT-mSES-injected transgenic animals (FIG. 16, panels a and b). However, only in the pT-mSES-injected transgenic animals were there cells appearing to be derived from tubule-like structures that were eGFP-positive (FIG. 16c). In contrast, in wild-type, non-transgenic mice receiving either QR or pT-mSES, no positive eGFP cells could be found. Therefore, cellular reprogramming to an induced nephron progenitor state may be possible in vivo following gene delivery of Snai2, Six1 and Eya1.

**Q.** Which “eGFP expression from the Cited1 promoter” value does the source give for “pT-mSES: piggyBac transposon plasmid (SEQ ID NO:12) expressing mouse Six1, Snai2 and Eya1 from the elongation factor 1 alpha promoter” here?
**A.** Its value is “induced eGFP expression indicative of Cited1 positivity”.
